This passage reports solubility and redox potential results from patent publication US20230299326A1, “REDOX FLOW BATTERY” (MITSUBISHI HEAVY INDUSTRIES, LTD., priority 2020, published 2023).

SMILES strings stand for the structures. ≈ marks a conversion by molar mass, not a printed value.

The nature of series [1]: Solubility of the hydroquinone pentamer. It is filed as physicochemical. As to conditions: per hydroquinone unit.
The nature of series [2]: Cyclic voltammogram of the hydroquinone pentamer (redox potential). In kind it is physicochemical. The following applies: glassy carbon working electrode, Ag/AgCl (3 M sodium chloride solution) reference, platinum wire counter electrode, sweep rate 25 mV/sec. The text has this: A cyclic voltammogram of the hydroquinone pentamer thus obtained was obtained. The measurement was made using a 5-mm diameter glassy carbon as the working electrode, Ag/AgCl (3 M sodium chloride solution) as the reference electrode, and platinum wire as the counter electrode at a sweep rate of 25 mV/sec.

On to `Oc1cc2c(O)cc1Cc1cc(O)c(cc1O)Cc1cc(O)c(cc1O)Cc1cc(O)c(cc1O)Cc1cc(O)c(cc1O)C2` [hydroquinone pentamer], for which the solubility in series [1] came out at 1800 mM (≈ 1100 mg/mL). The redox potential in series [2] is -0.75 V vs. SHE.

Usually solubility stands for the dissolved amount per volume that the medium holds. Lower therefore signals a poorly soluble substance.
